Assays:
[1] = In-solution screening: CaP precipitation and aggregation in artificial renal tubular fluid (RTF); conditions: 9 mM phosphate, 8 mM calcium, 4 h, RT
Experimental: An artificial renal tubular fluid (RTF) with a final composition of 0.05 mM oxalate, 0.005 mM sulphate, 408 mM sodium, 424 mM chloride, 0.26 mM potassium, 4 mM magnesium and 0.2 mM citrate in double distilled water was prepared according to a literature report (Fasano, J. M. et al., Kidney Int. 59, 169-178. DOI: 10.1046/j.1523-1755.2001.00477.x, 2001). The solution was filtered with a 0.45-μm syringe filter. Twenty mM Bis-Tris buffer was added to the reported protocol to ensure pH stability throughout experiments and pH was set to 7.2. The artificial RTF was stored at room temperature for up to four months. Stock solutions of 0.25 M phosphate and 1 M calcium were prepared in double distilled water and were stored separately at −20° C.
Twenty-x final concentration phosphate, 20× final concentration calcium and 10× final concentration compound dilutions were prepared in RTF. Assay mixture consisting of 80% RTF, 10% compound dilution, 5% phosphate dilution and 5% calcium dilution was prepared in Eppendorf tubes as follows. RTF (320 μL) was mixed with 20 μL phosphate dilution (final concentration of 9 mM), 40 μL compound dilution and 20 μL calcium dilution (final concentration of 8 mM). The assay mixture was vortexed after adding each component and 380 μL of the mixture were immediately added to 8-well glass bottom slides and incubated for 4 hat RT. CaP precipitation was assessed using a Leica DM 6000B microscope (Leica Microsystems, Wetzlar, Germany) in brightfield mode. For quantification 3 wells/condition with 3-4 images/well were imaged with a 40× objective. The total area covered with CaP deposits in percentage of the field of view and the mean size of CaP aggregates were determined.
In a first step, the influence of selected IP6 analogues (FIG. 3) on CaP precipitation and growth was assessed in vitro using artificial renal tubular fluid (RTF) (Table 1). In a previous study, the inventors investigated CaP protein particle formation in serum. However, an important difference to cardiovascular calcification lies in the extremely low protein content of the renal tubular fluid vs. the high abundance of proteins in blood, which can stabilize amorphous particles. Two cut-offs were chosen for assessing efficacy. First, complete inhibition was defined as a >90% reduction of detected CaP precipitates compared to the control sample without compound.

[2] = previous study (Kletzmayr et al. 2020); cited from earlier work
[3] = system: C57BL/6 male mice on high phosphate diet; assay: Mouse model of high phosphate-induced kidney damage; format: in vivo; conditions: 100 mg/kg s.c. 3 times/week
Experimental: C57BL/6 male mice (12 weeks of age) were placed on either regular diet containing 0.35% inorganic phosphate or high phosphate diet containing 2.0% inorganic phosphate. These mice were subcutaneously injected with either (OEG2)2-IP4 (100 mg/kg) or vehicle (distilled water) three times a week and then sacrificed at 20 weeks of age to harvest their blood and kidneys. Some mice were transferred individually to metabolic cages to collect urine for 3 days before sacrifice. Serum FGF23 levels were measured using intact FGF23 ELISA (Kinos) according to the manufacturers' protocols. Serum and urine levels of phosphate were measured using Fuji Dri-Chem slides and the analyzer (Dri-Chem NX500V, Fuji, Tokyo, Japan). […] Quantitative RT-PCR reactions were performed using 20 ng of cDNA incubated with 410 nM of each primer and 6 μL of SYBR Green PCR Master mix (Toyoba, Osaka, Japan THUNDERBIRD SYBR qPCR Mix QPS-201) in a total volume of 12 μl. […] Relative mRNA levels were calculated by the comparative threshold cycle method using cyclophilin as an internal control. […] The collagen volume fraction (the ratio of the Sirius Red-positive area to the total area) was quantified using an image analysis software (IMAGE PRO 9.32, Medica Cybernetics, Rockville, MD, USA) as previously described (Hirano, Y. Kurosu et al., FEBS Open Bio. 10, 894-903. DOI:10.1002/2211-5463.1284, 2020). […]

[4] = reported, Schantl et al. 2020; cited from earlier work

## COCCOCCO[C@@H]1C(OP(=O)(O)O)[C@H](OCCOCCOC)[C@@H](OP(=O)(O)O)C(OP(=O)(O)O)[C@H]1OP(=O)(O)O (some centres unmarked) [(OEG2)2-IP4]
[1]
  effect on CaP precipitation / crystallization (in words): did not further increase the inhibitory activity
[2]
  efficacy on CaOx crystallization in solution: limited efficacy
[3]
  collagen volume fraction (fibrosis), Picro-Sirius red staining of the kidneys, vs vehicle: reduced
  kidney damage and fibrosis markers (Spp1, IL36a, Ngal, MMP3, Col1a1 mRNA in kidney) vs vehicle control: significantly reduced
[4]
  pharmacokinetic profile: favorable

— US20240000811A1, “INOSITOL HEXAKISPHOSPHATE ANALOGUES FOR TREATMENT OF CALCIFICATION ASSOCIATED KIDNEY DISEASES” (INOSITEC AG, priority 2020, published 2024)
